The values below come from article PMC6332232 (Molecules, 2015).

A word on the Km: it is the substrate concentration at which the rate is half of its maximum.

Data set [1] is described as follows: Enzyme kinetics of 4(S)-hydroxyevogliptin glucuronidation in pooled human liver microsomes. Format: in vitro ADME. The method, then:
Therefore, a 20 min incubation time and 0.2 mg/mL microsomal protein concentration were selected for enzyme kinetics experiments. The reaction mixture comprised 50 mM Tris buffer (pH 7.4), 10 mM magnesium chloride, 0.025 mg/mL alamethicin, pooled human liver microsomes (20 μg protein), and various concentrations of 4(S)-hydroxyevogliptin (M2) (10 to 2,000 μM; final acetonitrile concentration not exceeding 0.5%, v/v), and was preincubated for 3 min at 37 °C. The reaction was initiated by adding UDPGA, and the mixture was further incubated (final volume of 100 μL) for 20 min at 37 °C in a shaking water bath. The reaction was stopped by adding 100 μL of MPPI (internal standard, 50 ng/mL) in ice-cold acetonitrile. The mixture was centrifuged at 13,000 rpm for 4 min at 4 °C. […]
Results represent the average of three independent experiments using human liver microsomes and human cDNA-expressed CYP and UGT enzymes. The kinetic parameters (Km and Vmax) for hydroxylation and glucuronidation were determined using the Michaelis-Menten equation [V = Vmax·S/(Km + S)], the Hill equation [V = Vmax·S^n/(Km^n + S^n)], or the isoenzyme equation [V = Vmax1·(S/Km1)/(1 + S/Km1) + Vmax2·(S/Km2)/(1 + S/Km2)] with the Enzyme Kinetics software (version 1.3; Systat Software Inc.). […] The intrinsic clearance (Clint) was calculated as Vmax/Km.
In general terms: Liver microsomes are a subcellular fraction often used to study metabolism.

The nature of data set [2]: Enzyme kinetics of evogliptin hydroxylation in pooled human liver microsomes. It is filed as in vitro ADME. The following applies: single-enzyme kinetics; for Km at 20 min: human, pH 7.4, Km. The method, then:
Thus, a 20 min incubation time and 0.15 mg/mL microsomal protein concentration were used in subsequent experiments. […] The mixture was centrifuged at 13,000 rpm for 4 min at 4 °C. Subsequently, 50 μL of the supernatant were diluted with 50 μL of deionized water and an aliquot (5 μL) was injected onto the LC-MS/MS system. Results represent the average of three independent experiments using human liver microsomes and human cDNA-expressed CYP and UGT enzymes. […] Systat Software Inc.). In the above-mentioned equations, V was the velocity of the reaction at substrate concentration [S], Vmax was the maximum velocity, Km was the substrate concentration at which the V was half of Vmax, and n is the Hill constant. The intrinsic clearance (Clint) was calculated as Vmax/Km.

Substrate in data set [3]: CC(C)(C)OC[C@@H]1C(=O)NCCN1C(=O)C[C@H](N)[C@@H](O)c1cc(F)c(F)cc1F
Description: Enzyme kinetics of 4(S)-hydroxyevogliptin glucuronidation in human cDNA-expressed UGT2B7. The following applies: other: UGT2B7, Hill equation kinetics; pH 7.4; 37.0 °C. It is filed as in vitro ADME. The method, then:
(§1) For the enzyme kinetic study, various concentrations of 4(S)-hydroxyevogliptin (M2) (25 to 2000 μM; final acetonitrile concentration not exceeding 0.5%, v/v) were incubated with human cDNA-expressed UGT2B4 or UGT2B7 enzymes (20 μg protein), 2 mM UDPGA, 0.025 mg/mL alamethicin, and 10 mM magnesium chloride in 50 mM Tris buffer (pH 7.4) for 20 min at 37 °C in a shaking water bath. After adding ice-cold acetonitrile containing internal standard (MPPI, 50 ng/mL), the mixture was centrifuged and diluted as described above, and an aliquot (5 μL) was analyzed using the LC-MS/MS system.
(§2) Results represent the average of three independent experiments using human liver microsomes and human cDNA-expressed CYP and UGT enzymes. The kinetic parameters (Km and Vmax) for hydroxylation and glucuronidation were determined using the Michaelis-Menten equation [V = Vmax·S/(Km + S)], the Hill equation [V = Vmax·S^n/(Km^n + S^n)], or the isoenzyme equation [V = Vmax1·(S/Km1)/(1 + S/Km1) + Vmax2·(S/Km2)/(1 + S/Km2)] with the Enzyme Kinetics software (version 1.3; Systat Software Inc.). In the above-mentioned equations, V was the velocity of the reaction at substrate concentration [S], Vmax was the maximum velocity, Km was the substrate concentration at which the V was half of Vmax, and n is the Hill constant. The intrinsic clearance (Clint) was calculated as Vmax/Km.

Substrate in data set [4]: CC(C)(C)OC[C@@H]1C(=O)NCCN1C(=O)C[C@H](N)Cc1cc(F)c(F)cc1F
Description: not read. The following applies: other: CYP3A5, single-enzyme kinetics; pH 7.4; 37.0 °C.

Substrate in data set [5]: CC(C)(C)OC[C@@H]1C(=O)NCCN1C(=O)C[C@H](N)[C@@H](O)c1cc(F)c(F)cc1F
The data set is described as follows: Enzyme kinetics of 4(S)-hydroxyevogliptin glucuronidation in human cDNA-expressed UGT2B4. Format: in vitro ADME. The following applies: other: UGT2B4, single-enzyme kinetics; pH 7.4; 37.0 °C. The method, then: as §1, §2

In the case of `CC(C)(C)OC[C@@H]1C(=O)NCCN1C(=O)C[C@H](N)[C@@H](O)c1cc(F)c(F)cc1F` [4(S)-hydroxyevogliptin], the “Vmax, formation of 4(S)-hydroxyevogliptin glucuronide (M4)” value in data set [1] (Hill equation) is 711.4 pmol/mg protein/min. Also, in data set [1] (pH 7.4, Hill equation), the Michaelis-Menten constant (Km) at 20 min turned out to be 928 µM. On to `CC(C)(C)OC[C@@H]1C(=O)NCCN1C(=O)C[C@H](N)Cc1cc(F)c(F)cc1F` [evogliptin, (R)-4-((R)-3-amino-4-(2,4,5-trifluorophenyl)butanoyl)-3-(tert-butoxymethyl)-piperazin-2-one], for which, in data set [2] (formation of 4(R)-hydroxyevogliptin (M3)), the Km at 20 min amounted to 124 µM. Further, the Km at 20 min in data set [2] (formation of 4(S)-hydroxyevogliptin (M2)) is 93.4 µM. Besides, in data set [2], the “Vmax, formation of 4(R)-hydroxyevogliptin (M3)” value came to 113.0 pmol/min/mg protein and the “Vmax, formation of 4(S)-hydroxyevogliptin (M2)” value came out at 91.9 pmol/min/mg protein.

B1: UGT2B7 (Homo sapiens) (protein)
chain: GKVLVWAAEYSHWMNIKTILDELIQRGHEVTVLASSASILFDPNNSSALKIEIYPTSLTKTELENFIMQQIKRWSDLPKDTFWLYFSQVQEIMSIFGDITRKFCKDVVSNKKFMKKVQESRFDVIFADAIFPCSELLAELFNIPFVYSLSFSPGYTFEKHSGGFIFPPSYVPVVMSELTDQMTFMERVKNMIYVLYFDFWFEIFDMKKWDQFYSEVLGRPTTLSETMGKADVWLIRNSWNFQFPYPLLPNVDFVGGLHCKPAKPLPKEMEDFVQSSGENGVVVFSLGSMVSNMTEERANVIASALAQIPQKVLWRFDGNKPDTLGLNTRLYKWIPQNDLLGHPKTRAFITHGGANGIYEAIYHGIPMVGIPLFADQPDNIAHMKARGAAVRVDFNTMSSTDLLNALKRVINDPSYKENVMKLSRIQHDQPVKPLDRAVFWIEFVMRHKGAKHLRVAAHDLTWFQYHSLDVIGFLLVCVATVIFIVTKCCLFCFWKFARKAKKGKND
notes: purchased Corning Life Sciences (Woburn, MA, USA)
As for B1, in data set [3], the Km came out at 1003.8 µM.

B2: CYP3A5 (Homo sapiens) (protein)
chain: MDLIPNLAVETWLLLAVSLVLLYLYGTRTHGLFKRLGIPGPTPLPLLGNVLSYRQGLWKFDTECYKKYGKMWGTYEGQLPVLAITDPDVIRTVLVKECYSVFTNRRSLGPVGFMKSAISLAEDEEWKRIRSLLSPTFTSGKLKEMFPIIAQYGDVLVRNLRREAEKGKPVTLKDIFGAYSMDVITGTSFGVNIDSLNNPQDPFVESTKKFLKFGFLDPLFLSIILFPFLTPVFEALNVSLFPKDTINFLSKSVNRMKKSRLNDKQKHRLDFLQLMIDSQNSKETESHKALSDLELAAQSIIFIFAGYETTSSVLSFTLYELATHPDVQQKLQKEIDAVLPNKAPPTYDAVVQMEYLDMVVNETLRLFPVAIRLERTCKKDVEINGVFIPKGSMVVIPTYALHHDPKYWTEPEEFRPERFSKKKDSIDPYIYTPFGTGPRNCIGMRFALMNMKLALIRVLQNFSFKPCKETQIPLKLDTQGLLQPEKPIVLKVDSRDGTLSGE
Take B2: the kcat in data set [4] amounted to 19.5 pmol/min/pmol CYP.

B3: UGT2B4 (Homo sapiens) (protein)
chain: GKVLVWPTEFSHWMNIKTILDELVQRGHEVTVLASSASISFDPNSPSTLKFEVYPVSLTKTEFEDIIKQLVKRWAELPKDTFWSYFSQVQEIMWTFNDILRKFCKDIVSNKKLMKKLQESRFDVVLADAVFPFGELLAELLKIPFVYSLRFSPGYAIEKHSGGLLFPPSYVPVVMSELSDQMTFIERVKNMIYVLYFEFWFQIFDMKKWDQFYSEVLGRPTTLSETMAKADIWLIRNYWDFQFPHPLLPNVEFVGGLHCKPAKPLPKEMEEFVQSSGENGVVVFSLGSMVSNTSEERANVIASALAKIPQKVLWRFDGNKPDTLGLNTRLYKWIPQNDLLGHPKTRAFITHGGANGIYEAIYHGIPMVGVPLFADQPDNIAHMKAKGAAVSLDFHTMSSTDLLNALKTVINDPLYKENAMKLSRIHHDQPVKPLDRAVFWIEFVMRHKGAKHLRVAAHDLTWFQYHSLDVTGFLLACVATVIFIITKCLFCVWKFVRTGKKGKRD
notes: purchased Corning Life Sciences
Turning to B3, the Km in data set [5] is 1,328 μM.
